Results reported in patent EP0868914B1, “USE OF A FLAVONOID-CONTAINING EXTRACT OF THE PLANT EUPHORBIA PROSTRATA IN THE MANUFACTURE OF A MEDICAMENT FOR THE TREATMENT OF AN ANORECTIC OR COLONIC DISEASE” (PANACEA BIOTEC LIMITED, priority 1997, dated 1998).
Marks after values point to notes of the source that are not given here.

Legend:
[1] = test system: croton oil-induced oedema in mice ears; test: Croton oil ear test (oedema), topical; settings: for Activity Ratio on Molar basis: Indomethacin = 1; for ID50 / ID50 (column head printed: Activity Ratio): croton oil ear test in mice, Italian institute data
[2] = test system: Carrageenan-induced Pedal Oedema; test: Carrageenan-induced pedal oedema in rats (oral extract, intraperitoneal indomethacin); type: in vivo; settings: for Oedema + SEM (%): intraperitoneal
[3] = test system: Carrageenan-induced Mice Paw Oedema; test: Carrageenan-induced paw oedema in mice, topical application; type: in vivo; settings: topical Indomethacin
Description: The duration of action of topical preparation was determined by studying the effects of different concentrations of the drug on oedema over a period of 8 hr. As evident from the Table 3, the peak inhibition was observed after 3-4 hours of carrageenan injection begining at 2 hr for the extract at lower concentrations (0.5-2.0%) and 1 hr. at 4 % concentration.

[4] = test system: granulocyte infiltration (MPO activity); test: Granulocyte infiltration (MPO activity) in the croton oil ear test; type: in vivo, mice; settings: One unit = 1 nMol/min. of tetraguaiacol formed at 25°C
[5] = 1.26µMol, 6 hours after treatment
[6] = 1.26µMol, 18 hours after treatment
[7] = 1.26µMol, 30 hours after treatment

O=c1cc(-c2ccc(O)cc2)oc2cc(O[C@@H]3O[C@H](CO)[C@@H](O)[C@H](O)[C@H]3O)cc(O)c12 [Apigenin-7-glucoside]
Activity Ratio on Molar basis [1]: 0.32
ID50 [1]: 175 µg/ear
ID50 (column head printed: Activity Ratio) [1]: 0.404 µmol/ear

COc1ccc2c(c1)c(CC(=O)O)c(C)n2C(=O)c1ccc(Cl)cc1 [Indomethacin]
inhibition of oedema ([2]; 1mg/kg, i.p.): 74%
Oedema + SEM (%) ([2]; 0.5 mg/Kg, +30 min): 13.6±4.0%
Oedema + SEM (%) ([2]; 0.5 mg/Kg, +60 min): 18.9±4.0%
Oedema + SEM (%) ([2]; 0.5 mg/Kg, +120 min): 28.8±4.2%
Oedema + SEM (%) ([2]; 1.0 mg/Kg, +30 min): 9.3±2.3%
Oedema + SEM (%) ([2]; 1.0 mg/Kg, +60 min): 12.3±2.2%
Oedema + SEM (%) ([2]; 1.0 mg/Kg, +120 min): 16.4±1.6%
Oedema + SEM (%) ([2]; 2.0 mg/Kg, +30 min): 8.2±1.5%
Oedema + SEM (%) ([2]; 2.0 mg/Kg, +60 min): 12.8±1.8%
Effect on Oedema Development [1, 5]: 0.0 ± 0.1 mg
Effect on Oedema Development [1, 6]: 3.1 ± 0.4 mg
Effect on Oedema Development [1, 7]: 0.5 ± 0.1 mg
antiinflammatory activity (oedema) in words ([1]; 18 hours after treatment): lose their antiinflammatory activity
Activity Ratio on Molar basis [1]: 1.00
ID50 [1]: 46.1 µg/ear
ID50 (column head printed: Activity Ratio) [1]: 0.126 µmol/ear
inhibition of Carrageenan-induced Mice Paw Oedema ([3]; Dose 1.00 %, +60 m): 18.2** %
inhibition of Carrageenan-induced Mice Paw Oedema ([3]; Dose 1.00 %, +120 m): 24.0** %
inhibition of Carrageenan-induced Mice Paw Oedema ([3]; Dose 1.00 %, +180 m): 29.0** %
inhibition of Carrageenan-induced Mice Paw Oedema ([3]; Dose 1.00 %, +240 m): 21.2** %
inhibition of Carrageenan-induced Mice Paw Oedema ([3]; Dose 1.00 %, +360 m): 9.6** %
inhibition of Carrageenan-induced Mice Paw Oedema ([3]; Dose 1.00 %, +480 m): 4.6%
inhibition of Carrageenan-induced Mice Paw Oedema ([3]; Dose 2.00 %, +60 m): 24.2* %
inhibition of Carrageenan-induced Mice Paw Oedema ([3]; Dose 2.00 %, +120 m): 26.0* %
inhibition of Carrageenan-induced Mice Paw Oedema ([3]; Dose 2.00 %, +180 m): 41.9*** %
inhibition of Carrageenan-induced Mice Paw Oedema ([3]; Dose 2.00 %, +180 m, listed as indomethacin): 41.9%
inhibition of Carrageenan-induced Mice Paw Oedema ([3]; Dose 2.00 %, +240 m): 36.4* %
inhibition of Carrageenan-induced Mice Paw Oedema ([3]; Dose 2.00 %, +360 m): 11.5* %
inhibition of Carrageenan-induced Mice Paw Oedema ([3]; Dose 2.00 %, +480 m): 10.6%
Effect on granulocyte infiltration (MPO activity) [4, 5]: 0.0±0.1 unit
Effect on granulocyte infiltration (MPO activity) [4, 6]: 10.0±1.6 unit
Effect on granulocyte infiltration (MPO activity) [4, 7]: 6.8±3.4 unit

C[C@]12CCC(=O)C=C1CC[C@@H]1[C@@H]2[C@@H](O)C[C@@]2(C)[C@H]1CC[C@]2(O)C(=O)CO [Hydrocortisone]
Effect on Oedema Development ([1]; 0.41 µMol, 6 hours after treatment): 0.5 ± 0.2 mg
Effect on Oedema Development ([1]; 0.41 µMol, 18 hours after treatment): 0.7 ± 0.1 mg
Effect on Oedema Development ([1]; 0.41 µMol, 30 hours after treatment): 0.7 ± 0.1 mg
antiinflammatory activity (oedema) in words ([1]; 18 hours after treatment): maintain their effect to a certain extent
Activity Ratio on Molar basis [1]: 14.00
ID50 [1]: 3.3 µg/ear
ID50 (column head printed: Activity Ratio) [1]: 0.009 µmol/ear
Effect on granulocyte infiltration (MPO activity) ([4]; 0.41µMol, 6 hours after treatment): 0.0±0.2 unit
Effect on granulocyte infiltration (MPO activity) ([4]; 0.41µMol, 18 hours after treatment): 6.9±2.1 unit
Effect on granulocyte infiltration (MPO activity) ([4]; 0.41µMol, 30 hours after treatment): 8.2±2.4 unit

C[C@@H]1O[C@@H](OC[C@H]2O[C@@H](Oc3c(-c4ccc(O)c(O)c4)oc4cc(O)cc(O)c4c3=O)[C@H](O)[C@@H](O)[C@@H]2O)[C@H](O)[C@H](O)[C@H]1O [Rutin]
Activity Ratio on Molar basis [1]: 0.28
ID50 [1]: 282 µg/ear
ID50 (column head printed: Activity Ratio) [1]: 0.462 µmol/ear

O=c1c(O)c(-c2ccc(O)c(O)c2)oc2cc(O)cc(O)c12 [Quercetin]
Activity Ratio on Molar basis [1]: 0.65
ID50 [1]: 60.3 µg/ear
ID50 (column head printed: Activity Ratio) [1]: 0.200 µmol/ear
